The subject of assay [1] is T98G cells. Put plainly: Crystal violet cell viability, T98G glioma cells (single agents and combinations). The procedure: (§1) A172 and U87MG cells were cultured in DMEM-Eagle medium supplemented with 4 mmol/L L-glutamine, 100 units/ml penicillin and 100 μg/ml streptomycin, and 10% FBS Charcoal Stripped (Biological Industries, Israel). The T98G cells were cultured in Eagle's minimum essential medium supplemented with 4 mmol/L L-glutamine, 100 units/ml penicillin and 100 μg/ml streptomycin. To avoid the influence of FBS derived steroid hormone on AR, the cell media were supplemented with 10% charcoal/dextran-treated (stripped) FBS (Biological Industries). The cells were maintained in a humidified incubator at 37° C. in 5% CO2.
The effect of combination therapies that involve anti-AR signaling agents together with agents that target EGFR on AR modulation was examined in glial tumor cells expressing a ligand independent AR splice variant.

In assay [2] the test system is A172 cells. Description: Crystal violet cell viability, A172 glioma cells. The format is cell-based. Here is the method: as §1
Assay [3] has as its system U87MG cells. Description: Crystal violet cell viability, U87MG glioma cells. The assay is classed as cell-based, human. Here is the method:
as §1

[4] abbreviates: Homo sapiens, 72 h, read-out: Cell viability, percentage of cells treated with vehicle.
Where [5] appears, read: Homo sapiens, 72 h, read-out: Cell viability, percentage of cells treated with DHT.

Structures are written as SMILES.

As usually defined, the viability is a per cent measure of how many cells are alive, often set against a control.

Turning to `C#Cc1cccc(Nc2ncnc3cc(OCCOC)c(OCCOC)cc23)c1` [erlotinib], in assay [1] (setting [4]), the viability at 1.25 µM is 94% and the viability at 10 µM is 63%.
Take `CC(O)(CS(=O)(=O)c1ccc(F)cc1)C(=O)Nc1ccc(C#N)c(C(F)(F)F)c1` (stereo not shown) [bicalutamide]: the viability at 20 µM came to 90% in assay [2] (Homo sapiens, A 172, A172, 20 uM, 72 hrs, with 10 μM DHT, read-out: Cell viability, percentage of cells treated with DHT); 90% in assay [1] (setting [5]); 83% in assay [3] (Homo sapiens, U-87 MG, 20 uM, 72 hrs, with 10 μM DHT, read-out: Cell viability, percentage of cells treated with DHT). The viability at 80 µM in assay [2] (Homo sapiens, A 172, A172, 80 uM, 72 hrs, with 10 μM DHT, read-out: Cell viability, percentage of cells treated with DHT) stood at 43%; in assay [1] (setting [5]), 59%; in assay [3] (Homo sapiens, U-87 MG, 80 uM, 72 hrs, with 10 μM DHT, read-out: Cell viability, percentage of cells treated with DHT), 31%.
Turning to `C[C@]12CCC(=O)C[C@@H]1CC[C@@H]1[C@@H]2CC[C@]2(C)[C@@H](O)CC[C@@H]12` [DHT, 5α-dihydrotestosterone], the “Effect of DHT on cell viability versus vehicle” value in assay [2] (A172, 10 μM DHT, vehicle 0.15% ETOH) is reported as “no effect on cell viability”; in assay [1] (10 μM DHT, vehicle 0.15% ETOH) it was “no effect on cell viability”; in assay [3] (10 μM DHT, vehicle 0.15% ETOH) it was “no effect on cell viability”.
As to `CN(C)C/C=C/C(=O)Nc1cc2c(Nc3ccc(F)c(Cl)c3)ncnc2cc1O[C@H]1CCOC1` [afatinib], in assay [1] (setting [4]), the viability at 1.25 µM was 92% and the viability at 5 µM came to 47%.

These data come from patent US11478453B2, “Treatment for glioblastoma” (HADASIT MEDICAL RESEARCH SERVICES AND DEVELOPMENT LTD., priority 2016, dated 2022).
